Patent US11084826B2, “RSV antiviral pyrazolo- and triazolo-pyrimidine compounds” (Janssen Sciences Ireland Unlimited Company, priority 2015, dated 2021)

Assays:
[1] = Cytotoxicity in HeLa cells, ATP content measured with the ATPlite kit; format: cell-based; conditions: human, TOX HELA pCC50
rgRSV224 virus = test: Antiviral activity: inhibition of rgRSV224 (GFP-expressing RSV) replication in HeLa cells, GFP expression read-out; format: cell-based, respiratory syncytial virus (RSV); conditions: human respiratory syncytial virus, HeLa, read-out: RSV HELA pEC50, rgRSV224 virus (MOI=1) in HeLa cells, GFP read-out (converted)
Outline: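 HeLa cells (3,000/well) were infected with GFP-expressing rgRSV224 (MOI=1) in the presence of 9 serial 4-fold compound dilutions (0.05% DMSO) and incubated at 37° C, 5% CO2. After three days, GFP expression was measured by laser microscopy. EC50 is the concentration giving 50% inhibition of GFP expression.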

SMILES	CC50 at 3 days [1] [nM]	EC50 (rgRSV224 virus) [nM]	melting point [°C]
CCc1cc(C(=O)N2CCCCC[C@H]2C)nc2cc(-c3ccc(C(N)=O)cc3)nn12 [Compound A26]	> 25100	195	160 to 165
CCc1cc(C(=O)N2CCCC[C@H]2C)nc2cc(-c3ccc(C(N)=O)cc3)nn12 [Compound A27]	> 25100	871	160 to 165
CCCC(C)N(C)C(=O)c1cc(CC)n2nc(-c3ccc(C(N)=O)cc3)cc2n1 (stereo not drawn) [Compound A28]	> 25100	794	140 to 145
CCc1cc(C(=O)N2CCCCCCC2C)nc2cc(-c3ccc(C(N)=O)cc3)nn12 (stereo not drawn) [Compound A29]	> 25100	155	170 to 175
CCc1cc(C(=O)N2CCCCCC2C)nc2cc(-c3ccc(NC(=O)NCC4CCCO4)cc3F)nn12 (stereo not drawn) [Compound B1]	> 100000	129	140
CCCC(C)N(C)C(=O)c1cc(CC)n2nc(-c3ccc(NC(=O)NCC4CCCO4)cc3F)cc2n1 (stereo not drawn) [Compound B2]	> 100000	407	180 to 185
CCc1cc(C(=O)N2CCCCCCC2C)nc2cc(-c3ccc(NC(=O)NCC4CCCO4)cc3F)nn12 (stereo not drawn) [Compound B3]	> 25100	79.4	195 to 200
CCc1cc(C(=O)N2CCCCCC2C)nc2cc(-c3ccc(NC(=O)NCC4CCCO4)cc3C)nn12 (stereo not drawn) [Compound B4]	55000	257	123
CCc1cc(C(=O)N2CCCCCC2C)nc2cc(-c3ccc(NC(=O)NCC4CCCO4)cc3)nn12 (stereo not drawn) [Compound B5]	> 100000	166	205
CCc1cc(C(=O)N2CCCCCC2C)nc2cc(-c3ccc(NC(=O)Nc4cccc(F)c4)cc3)nn12 (stereo not drawn) [Compound B6]	> 100000	741	260 to 265
CCc1cc(C(=O)N2CCCCC2C)nc2cc(-c3ccc(NC(=O)NCC4CCCO4)cc3)nn12 (stereo not drawn) [Compound B7]	> 100000	631	175 to 180
CCc1cc(C(=O)N2CCCCCC2C)nc2cc(-c3ccc(NC(=O)NC4CC4)cc3)nn12 (stereo not drawn) [Compound B8]	17000	240	240 to 245
CCc1cc(C(=O)N2CCCCCC2C)nc2cc(-c3ccc(NC(=O)NCC4CC4)cc3)nn12 (stereo not drawn) [Compound B9]	> 100000	501	165 to 170
CC1CCCCCN1C(=O)c1cc(N2CCCC2)n2nc(-c3ccc(NC(=O)NCC4CCCO4)cc3)cc2n1 (stereo not drawn) [Compound B10]	> 100000	316	228 to 230
CC1CCCCCN1C(=O)c1cc(N2CCCCC2)n2nc(-c3ccc(NC(=O)NCC4CCCO4)cc3)cc2n1 (stereo not drawn) [Compound B11]	> 100000	282	168 to 171
CC1CCCCCN1C(=O)c1cc(N(C)C2CCCCC2)n2nc(-c3ccc(NC(=O)NCC4CCCO4)cc3)cc2n1 (stereo not drawn) [Compound B12]	> 100000	191	181 to 182
CCc1cc(C(=O)N2CCCCCC2C)nc2cc(-c3ccc(NC(=S)NCC4CCCO4)cc3F)nn12 (stereo not drawn) [Compound B13]	> 25100	398	210 to 215
CCc1cc(C(=O)N2CCCCCC2C)nc2cc(-c3ccc(NC(=S)NC4CC4)cc3F)nn12 (stereo not drawn) [Compound B14]	> 25100	437	220 to 222
CCc1cc(C(=O)N2CCCCCC2C)nc2cc(-c3ccc(N/C(=N/C#N)NCC4CCCO4)cc3F)nn12 (stereo not drawn) [Compound B16]	> 25100	589	160 to 165
CCc1cc(C(=O)N2CCCCCC2C)nc2cc(-c3ccc(N/C(=N/C#N)NC4CC4)cc3F)nn12 (stereo not drawn) [Compound B17]	> 25100	407	225 to 230
CCc1cc(C(=O)N2CCCCCC2C)nc2cc(-c3ccc(N/C(=N/C#N)NC4CC4)cc3)nn12 (stereo not drawn) [Compound B18]	> 25100	1150	222 to 223
CCc1cc(C(=O)N2CCCCCC2C)nc2cc(-c3ccc(NC(=O)OCCO)cc3F)nn12 (stereo not drawn) [Compound C4]	> 25100	110	175 to 180
CCc1cc(C(=O)N2CCCCCC2C)nc2cc(-c3ccc(NC(=O)OCC4CCCN4C)cc3F)nn12 (stereo not drawn) [Compound C5]	13800	178	165 to 170
CCc1cc(C(=O)N2CCCCCC2C)nc2cc(-c3ccc(NC(=O)OCCO)cc3)nn12 (stereo not drawn) [Compound C6]	> 25100	537	176 to 178

SMILES	CC50 at 3 days [1] [nM]	EC50 (rgRSV224 virus) [nM]	melting point [°C]
CCOC(=O)Nc1ccc(-c2cc3nc(C(=O)N4CCCCCC4C)cc(CC)n3n2)cc1 (stereo not drawn) [Compound C7]	> 100000	1380	195 to 200
CCc1cc(C(=O)N2CCCCCC2C)nc2cc(-c3ccc(NS(C)(=O)=O)cc3F)nn12 (stereo not drawn) [Compound D1]	51300	288	135 to 140
CCc1cc(C(=O)N2CCCCCCC2C)nc2cc(-c3ccc(NS(C)(=O)=O)cc3F)nn12 (stereo not drawn) [Compound D3]	> 25100	145	195 to 200
CCc1cc(C(=O)N2CCCCCC2C)nc2c(F)c(-c3ccc(NS(C)(=O)=O)cc3F)nn12 (stereo not drawn) [Compound D4]	> 25100	490	210 to 212
CCc1cc(C(=O)N2CCCCCC2C)nc2cc(-c3ccc(NC(=O)c4nccn4C)cc3F)nn12 (stereo not drawn) [Compound E1]	> 25100	617	210 to 215
CCc1cc(C(=O)N2CCCCCC2C)nc2cc(-c3ccc(NC(=O)Cc4ccncc4)cc3F)nn12 (stereo not drawn) [Compound E2]	> 25100	93.3	195 to 200
CCc1cc(C(=O)N2CCCCCC2C)nc2cc(-c3ccc(NC(=O)Cn4ccnc4)cc3F)nn12 (stereo not drawn) [Compound E3]	6460	132	155 to 160
CCCC(=O)Nc1ccc(-c2cc3nc(C(=O)N4CCCCCC4C)cc(CC)n3n2)c(F)c1 (stereo not drawn) [Compound E4]	> 25100	182	175 to 180
C=CCC(=O)Nc1ccc(-c2cc3nc(C(=O)N4CCCCCC4C)cc(CC)n3n2)c(F)c1 (stereo not drawn) [Compound E5]	> 25100	138	170 to 175
CCc1cc(C(=O)N2CCCCCC2C)nc2cc(-c3ccc(NC(=O)CC#N)cc3F)nn12 (stereo not drawn) [Compound E6]	> 25100	166	245 to 250
CCc1cc(C(=O)N2CCCCCC2C)nc2cc(-c3ccc(NC(=O)CCOC)cc3F)nn12 (stereo not drawn) [Compound E7]	> 25100	117	175 to 180
CCc1cc(C(=O)N2CCCCCC2C)nc2cc(-c3ccc(NC(=O)C4(C)CC4)cc3F)nn12 (stereo not drawn) [Compound E8]	> 25100	468	225 to 230
CCc1cc(C(=O)N2CCCCCC2C)nc2cc(-c3ccc(NC(=O)CC4CCCCN(C)C4=O)cc3)nn12 (stereo not drawn) [Compound E9]	> 25100	170	255 to 260
CCc1cc(C(=O)N2CCCCC[C@H]2C)nc2cc(-c3ccc(NC(=O)C4CC4)cc3F)nn12 [Compound E10]	> 25100	91.2	225 to 230
CCc1cc(C(=O)N2CCCCCC2C)nc2cc(-c3ccc(NC(=O)C4CC4)cc3F)nn12 (stereo not drawn) [Compound E11]	> 25100	631	145
CCc1cc(C(=O)N2CCCCCC2C)nc2c(Cl)c(-c3ccc(NC(=O)C4CC4)cc3F)nn12 (stereo not drawn) [Compound E13]	> 25100	1480	245 to 250
CCc1cc(C(=O)N2CCCCCC2C)nc2cc(-c3ccc(NC(=O)C4CC4)cc3)nn12 (stereo not drawn) [Compound E14]	> 50100	309	265 to 270
CCc1cc(C(=O)N2CCCCC2C)nc2cc(-c3ccc(NC(=O)C4CC4)cc3)nn12 (stereo not drawn) [Compound E15]	> 96200	832	260 to 265
CCc1cc(C(=O)N2CCCCCC2C)nc2cc(-c3ccc(NC(=O)C4CC4)cc3C)nn12 (stereo not drawn) [Compound E16]	> 10000	1320	223
CC1CCCCCN1C(=O)c1cc(N2CCCC2)n2nc(-c3ccc(NC(=O)C4CC4)cc3)cc2n1 (stereo not drawn) [Compound E17]	> 50100	513	282 to 284
CC1CCCCCN1C(=O)c1cc(N2CCCCC2)n2nc(-c3ccc(NC(=O)C4CC4)cc3)cc2n1 (stereo not drawn) [Compound E18]	> 25100	1260	299 to 300
CC1CCCCCN1C(=O)c1cc(N(C)C2CCCCC2)n2nc(-c3ccc(NC(=O)C4CC4)cc3)cc2n1 (stereo not drawn) [Compound E19]	> 100000	537	261 to 262
CCCC(=O)Nc1ccc(-c2cc3nc(C(=O)N4CCCCCC4C)cc(CC)n3n2)cc1 (stereo not drawn) [Compound E20]	> 25100	692	268 to 270
C=CCC(=O)Nc1ccc(-c2cc3nc(C(=O)N4CCCCCC4C)cc(CC)n3n2)cc1 (stereo not drawn) [Compound E21]	> 25100	603	243 to 244
